Patent US7786141B2 (Vertex Pharmaceuticals Incorporated, priority 2004, dated 2010)
Where two headings read alike, the source gives them in different places.

Experiments:
[1] = target: T1, M4 muscarinic receptor (Homo sapiens, UniProt P08173); experiment: Functional mobilization of intracellular calcium (FLIPR) in M4-CHO cells; type: cell-based
T1 construct: expressed in transfected cells; host or cells: CHO (M4-CHO)
T1 sequence (P08173 1-479): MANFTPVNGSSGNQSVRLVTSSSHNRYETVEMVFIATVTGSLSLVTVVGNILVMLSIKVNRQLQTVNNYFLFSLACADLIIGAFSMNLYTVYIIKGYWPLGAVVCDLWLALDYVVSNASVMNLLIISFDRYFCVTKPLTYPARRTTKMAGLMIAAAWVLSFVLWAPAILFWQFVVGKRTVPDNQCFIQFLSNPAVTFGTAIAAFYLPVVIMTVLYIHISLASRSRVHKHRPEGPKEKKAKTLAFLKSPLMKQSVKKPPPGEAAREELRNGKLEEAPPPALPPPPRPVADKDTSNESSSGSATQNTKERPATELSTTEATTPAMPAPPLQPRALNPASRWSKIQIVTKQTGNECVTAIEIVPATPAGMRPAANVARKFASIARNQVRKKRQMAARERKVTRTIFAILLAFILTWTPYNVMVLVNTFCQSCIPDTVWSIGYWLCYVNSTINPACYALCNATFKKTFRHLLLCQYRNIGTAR
In short: (§1)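 Measured via Fluo-3 fluorescence on a FLIPR, CHO cells with either muscarinic subtype received compound in 0.5% DMSO. Antagonism was assessed after 15 min pre-incubation followed by carbachol at each subtype's EC80; agonism from compound addition alone.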

[2] = target: T2, M1 muscarinic receptor (Homo sapiens, UniProt P11229); experiment: Functional mobilization of intracellular calcium (FLIPR) in M1-CHO cells; type: cell-based
T2 construct: expressed in transfected cells; host or cells: CHO (M1-CHO)
T2 sequence (P11229 1-460): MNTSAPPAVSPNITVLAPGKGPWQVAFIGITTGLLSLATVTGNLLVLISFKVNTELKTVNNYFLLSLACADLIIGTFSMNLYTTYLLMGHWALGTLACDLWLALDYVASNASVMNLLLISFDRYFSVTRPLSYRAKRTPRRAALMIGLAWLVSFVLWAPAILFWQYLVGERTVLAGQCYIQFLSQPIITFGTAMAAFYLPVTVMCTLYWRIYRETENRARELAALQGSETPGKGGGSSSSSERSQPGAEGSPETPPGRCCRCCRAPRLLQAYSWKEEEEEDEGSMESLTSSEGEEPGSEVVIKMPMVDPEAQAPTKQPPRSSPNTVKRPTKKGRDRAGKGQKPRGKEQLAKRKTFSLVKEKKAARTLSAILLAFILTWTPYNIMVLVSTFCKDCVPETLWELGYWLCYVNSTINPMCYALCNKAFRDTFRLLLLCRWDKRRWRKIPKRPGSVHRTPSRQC
In short: as §1

[3] = Table 4, 100% efficacy is the maximum response obtained with the Carbachol control
[4] = Table 4, modulating M4 receptor
[5] = Table 4, modulating M1 receptor
[6] = M4 receptor, calcium mobilization
[7] = M4 receptor, calcium mobilization, read-out: M4 Efficacy
[8] = M1 receptor, calcium mobilization
[9] = M1 receptor, calcium mobilization, read-out: M1 Efficacy
[10] = Table 4, M4 receptor, calcium mobilization (FLIPR)
[11] = Table 4, M1 receptor, calcium mobilization (FLIPR)
[12] = 100% efficacy is the maximum response obtained with the Carbachol control, Table 5

## CCOC(=O)N1CCC(N2CCC3(CC2)CN(C(C)=O)c2c(F)ccc(F)c23)CC1 [compound 431]
[1]; [3]
  Emax: 25 to 100%
[1]; [4]
  M4 Activity: xx (activity was measured to be between 2.0 μM and 5.0 μM)
[2]; [3]
  Emax: 25 to 100%
[2]; [5]
  M1 Activity: xx (activity was measured to be between 2.0 μM and 5.0 μM)

## COC(=O)N1C2CCC1CC(N1CCC3(CC1)CN(S(C)(=O)=O)c1ccc(F)cc13)C2 (stereo not drawn) [compound 383]
[1]; M4-CHO cells, calcium mobilization (FLIPR)
  EC50: 100 to 1000 nM
[1]; M4-CHO cells, calcium mobilization (FLIPR), read-out: M4 Efficacy
  Emax: < 65%
[2]; M1-CHO cells, calcium mobilization (FLIPR)
  EC50: < 100 nM
[2]; M1-CHO cells, calcium mobilization (FLIPR), read-out: M1 Efficacy
  Emax: 65 to 85%

## CCOC(=O)N1CC[C@H](CN2CCC3(CC2)CN(C(C)=O)c2ccccc23)C1 [compound 482]
[1]; [3]
  Emax: 25 to 100%
[1]; [4]
  M4 Activity: xxx (activity was measured to be less than 2.0 μM)
[2]; [3]
  Emax: 25 to 100%
[2]; [5]
  M1 Activity: xxx (activity was measured to be less than 2.0 μM)

## CC(=O)N1CC2(CCN(C3CCN(C(=O)OCCF)CC3)CC2)c2cc(F)ccc21 [compound 172]
[1]; [6]
  M4 Activity: x (activity was measured to be greater than 1.0 μM)
[1]; [7]
  Emax: 65 to 85%
[2]; [8]
  M1 Activity: x (activity was measured to be greater than 1.0 μM)
[2]; [9]
  Emax: > 85%

## O=C1CC2(CCN([C@@H]3C[C@@H]4CC[C@@H]3C4)CC2)c2cc(Cl)ccc21 [compound 787]
[1]; [3]
  Emax: 25 to 100%
[1]; [4]
  M4 Activity: xxx (activity was measured to be less than 2.0 μM)
[2]; [3]
  Emax: 25 to 100%
[2]; [5]
  M1 Activity: xxx (activity was measured to be less than 2.0 μM)

## COc1ccc(C(=O)N2CCC(N3CCC4(CC3)CN(C(=O)N(C)C)c3ccc(F)cc34)CC2)cc1 [compound 917]
[1]; [3]
  Emax: < 25%
[1]; [10]
  M4 Activity: x (activity was measured to be greater than 5.0 μM)
[2]; [3]
  Emax: < 25%
[2]; [11]
  M1 Activity: x (activity was measured to be greater than 5.0 μM)

## CCN(CC)C(=O)N[C@H]1CC2(CCN(C3CC4CC[C@@H]3C4)CC2)c2ccccc21 (stereo partly drawn) [compound 755]
[1]; [3]
  Emax: 25 to 100%
[1]; [4]
  M4 Activity: xxx (activity was measured to be less than 2.0 μM)
[2]; [3]
  Emax: < 25%
[2]; [5]
  M1 Activity: x (activity was measured to be greater than 5.0 μM)

## CN(C)C(=O)N1CC2(CCN(C3CCN(c4cncnc4)CC3)CC2)c2cc(F)ccc21 [compound 1033]
[1]; [12]
  Emax: 25 to 100%
[1]; CHO cells expressing M4, calcium mobilization, Table 5
  EC50: < 2000 nM
[2]; [12]
  Emax: 25 to 100%
[2]; CHO cells expressing M1, calcium mobilization, Table 5
  EC50: 2000 to 10000 nM

## CCOC(=O)N1CCC(N2CCC3(CC2)CN(C(C)=O)c2ccc(C)cc23)CC1 [compound 92]
[1]; [6]
  M4 Activity: xx (activity was measured to be between 0.1 μM and 1.0 μM)
[1]; [7]
  Emax: < 65%
[2]; [8]
  M1 Activity: xxx (activity was measured to be less than 0.1 μM)
[2]; [9]
  Emax: 65 to 85%

## CCOC(=O)N[C@H]1CC2(CCN(C[C@H]3C[C@H]4CC[C@H]3C4)CC2)c2ccccc21 [compound 326]
[1]; [6]
  M4 Activity: x (activity was measured to be greater than 1.0 μM)
[1]; [7]
  Emax: < 65%
[2]; [8]
  M1 Activity: x (activity was measured to be greater than 1.0 μM)
[2]; [9]
  Emax: < 65%

## CCCOC(=O)N1CCC(N2CCC3(CC2)CN(C(C)=O)c2ccc(C)cc23)CC1 [compound 252]
[1]; [6]
  M4 Activity: x (activity was measured to be greater than 1.0 μM)
[1]; [7]
  Emax: 65 to 85%
[2]; [8]
  M1 Activity: x (activity was measured to be greater than 1.0 μM)
[2]; [9]
  Emax: < 65%

## CC(=O)N[C@H]1CC2(CCN(C34CCCCC3C4)CC2)c2ccccc21 (stereo partly drawn) [compound 834]
[1]; [3]
  Emax: 25 to 100%
[1]; [10]
  M4 Activity: xxx (activity was measured to be less than 2.0 μM)
[2]; [3]
  Emax: 25 to 100%
[2]; [11]
  M1 Activity: xxx (activity was measured to be less than 2.0 μM)

## CCCCc1cncc(N2CCC(N3CCC4(CC3)CN(C(C)=O)c3ccccc34)CC2)n1 [compound 477]
[1]; [3]
  Emax: < 25%
[1]; [4]
  M4 Activity: x (activity was measured to be greater than 5.0 μM)
[2]; [3]
  Emax: < 25%
[2]; [5]
  M1 Activity: x (activity was measured to be greater than 5.0 μM)

## Cc1ccc2c(c1)C1(CCN(C3CC4CCC3C4)CC1)CN2C(=O)c1ccccc1 (stereo not drawn) [compound 933]
[1]; [3]
  Emax: < 25%
[1]; [10]
  M4 Activity: x (activity was measured to be greater than 5.0 μM)
[2]; [3]
  Emax: < 25%
[2]; [11]
  M1 Activity: x (activity was measured to be greater than 5.0 μM)

## COC(=O)N1CCC(CCN2CCC3(CCC(NC(C)=O)c4ccccc43)CC2)CC1 (stereo not drawn) [compound 875]
[1]; [3]
  Emax: < 25%
[1]; [10]
  M4 Activity: x (activity was measured to be greater than 5.0 μM)
[2]; [3]
  Emax: 25 to 100%
[2]; [11]
  M1 Activity: xxx (activity was measured to be less than 2.0 μM)

## CC(=O)N1CC2(CCN(C[C@@H]3CCN(C(=O)OC(C)C)C3)CC2)c2ccccc21 [compound 996]
[1]; [3]
  Emax: < 25%
[1]; [10]
  M4 Activity: x (activity was measured to be greater than 5.0 μM)
[2]; [3]
  Emax: < 25%
[2]; [11]
  M1 Activity: x (activity was measured to be greater than 5.0 μM)

## COCCOC(=O)N1C2CCC1CC(N1CCC3(CCc4ccccc43)CC1)C2 (stereo not drawn) [compound 95]
[1]; [6]
  M4 Activity: xx (activity was measured to be between 0.1 μM and 1.0 μM)
[1]; [7]
  Emax: < 65%
[2]; [8]
  M1 Activity: xxx (activity was measured to be less than 0.1 μM)
[2]; [9]
  Emax: 65 to 85%

## CS(=O)(=O)N[C@H]1CCC2(CCN(C3CCCCCC3)CC2)c2ccccc21 [compound 723]
[1]; [3]
  Emax: 25 to 100%
[1]; [4]
  M4 Activity: xxx (activity was measured to be less than 2.0 μM)
[2]; [3]
  Emax: 25 to 100%
[2]; [5]
  M1 Activity: xxx (activity was measured to be less than 2.0 μM)

## COCC(=O)N1CCC(N2CCC3(CC2)CN(C(=O)N(C)C)c2ccc(F)cc23)CC1 [compound 674]
[1]; [3]
  Emax: 25 to 100%
[1]; [4]
  M4 Activity: x (activity was measured to be greater than 5.0 μM)
[2]; [3]
  Emax: 25 to 100%
[2]; [5]
  M1 Activity: x (activity was measured to be greater than 5.0 μM)

## COCCOC(=O)N1CCC(CN2CCC3(CC2)CN(C(C)=O)c2ccc(F)cc23)CC1 [compound 26]
[1]; [6]
  M4 Activity: xx (activity was measured to be between 0.1 μM and 1.0 μM)
[1]; [7]
  Emax: < 65%
[2]; [8]
  M1 Activity: xxx (activity was measured to be less than 0.1 μM)
[2]; [9]
  Emax: 65 to 85%

## CCCC(=O)N[C@H]1CC2(CCN(C[C@@H]3C[C@H]4C=CC3C4)CC2)c2ccccc21 [compound 1016]
[1]; [3]
  Emax: 25 to 100%
[1]; [10]
  M4 Activity: xxx (activity was measured to be less than 2.0 μM)
[2]; [3]
  Emax: 25 to 100%
[2]; [11]
  M1 Activity: xxx (activity was measured to be less than 2.0 μM)

## CN(C)C(=O)N1CC2(CCN(C3CCN(c4nccs4)CC3)CC2)c2cc(F)ccc21 [compound 957]
[1]; [3]
  Emax: 25 to 100%
[1]; [10]
  M4 Activity: xxx (activity was measured to be less than 2.0 μM)
[2]; [3]
  Emax: 25 to 100%
[2]; [11]
  M1 Activity: xxx (activity was measured to be less than 2.0 μM)

## C#CCCOC(=O)N1CCC(N2CCC3(CC2)CN(C(=O)N(C)C)c2ccc(F)cc23)CC1 [compound 127]
[1]; [6]
  M4 Activity: xx (activity was measured to be between 0.1 μM and 1.0 μM)
[1]; [7]
  Emax: < 65%
[2]; [8]
  M1 Activity: xxx (activity was measured to be less than 0.1 μM)
[2]; [9]
  Emax: 65 to 85%

## CC(=O)N1CC2(CCN(CC3CCCC3)CC2)c2cc(F)ccc21 [compound 187]
[1]; [6]
  M4 Activity: x (activity was measured to be greater than 1.0 μM)
[1]; [7]
  Emax: 65 to 85%
[2]; [8]
  M1 Activity: xx (activity was measured to be between 0.1 μM and 1.0 μM)
[2]; [9]
  Emax: 65 to 85%

## CC(=O)N1CC2(CCN(C3CCN(c4cnccn4)CC3)CC2)c2ccccc21 [compound 505]
[1]; [3]
  Emax: 25 to 100%
[1]; [4]
  M4 Activity: xxx (activity was measured to be less than 2.0 μM)
[2]; [3]
  Emax: 25 to 100%
[2]; [5]
  M1 Activity: xxx (activity was measured to be less than 2.0 μM)

## CCC(C)(C)C1CCC(N2CCC3(CC[C@H](NC(C)=O)c4ccccc43)CC2)CC1 (stereo partly drawn) [compound 624]
[1]; [3]
  Emax: < 25%
[1]; [4]
  M4 Activity: x (activity was measured to be greater than 5.0 μM)
[2]; [3]
  Emax: 25 to 100%
[2]; [5]
  M1 Activity: xxx (activity was measured to be less than 2.0 μM)

## CC(=O)N[C@@H]1CCC2(CCN(C3CCCCCC3)CC2)c2ccccc21 [compound 666]
[1]; [3]
  Emax: 25 to 100%
[1]; [4]
  M4 Activity: xxx (activity was measured to be less than 2.0 μM)
[2]; [3]
  Emax: < 25%
[2]; [5]
  M1 Activity: x (activity was measured to be greater than 5.0 μM)
